Source: ChEMBL document CHEMBL4819132, “Discovery of novel tripeptide propylene oxide proteasome inhibitors for the treatment of multiple myeloma” (Bioorg Med Chem, 2021)

Tests used:
Format in all cases: ADME, organism-based
[1] = Tmax in Sprague-Dawley rat at 10 mg/kg, ig measured by LC-MS/MS analysis; settings: in vivo, po
[2] = Tmax in Sprague-Dawley rat at 1 mg/kg, iv measured by LC-MS/MS analysis; settings: in vivo
[3] = AUClast in Sprague-Dawley rat at 10 mg/kg, ig measured by LC-MS/MS analysis; parameters: dose 10 mg/kg; settings: in vivo, po
[4] = AUClast in Sprague-Dawley rat at 1 mg/kg, iv measured by LC-MS/MS analysis; parameters: dose 1 mg/kg; settings: in vivo
[5] = Mean residence time in Sprague-Dawley rat at 10 mg/kg, ig measured by LC-MS/MS analysis; settings: in vivo, po
[6] = Mean residence time in Sprague-Dawley rat at 1 mg/kg, iv measured by LC-MS/MS analysis; settings: in vivo
[7] = Bioavailability in Sprague-Dawley rat at 10 mg/kg, ig measured by LC-MS/MS analysis; settings: in vivo, po

Row | Tmax [1] [min] | Tmax [2] [min] | AUClast [3] [ng·mL·h] | AUClast [4] [ng·mL·h] | MRT [5] [min] | MRT [6] [min] | bioavailability [7] [%] | Compound
1 | 10.2 | 4.8 | 42 | 72 | 36.6 | 8.4 | 6.3 | COC[C@H](NC(=O)c1cc(C)on1)C(=O)NCC(=O)N[C@@H](Cc1ccccc1)C(=O)[C@@]1(C)CO1
2 | 13.2 | 4.8 | 119 | 107 | 51.6 | 19.8 | 13.5 | COC[C@H](NC(=O)c1cc(C)on1)C(=O)NCC(=O)N[C@@H](CC(C)C)C(=O)[C@@]1(C)CO1
